Results as given in patent US6337345B1, “Insecticidal or miticidal combinations containing chlorfenapyr” (American Cyanamid Co., priority 1996, dated 2002).

What was measured:
Format in all cases: in vivo
[1] = system: female imagines of Kanzawa spider mite (Tetranychus kanzawai kishida) which had acquired a strong resistance to chlorfenapyr; assay: Miticidal effect on female imagines of chlorfenapyr-resistant Kanzawa spider mite, leaf disk spray test
Protocol: In this experiment, the miticidal effect against female imagines (adults) of Kanzawa spider mite (Tetranychus kanzawai kishida) which are registrant to chlorfenapyr is evaluated.
Round leaf disks (2 cm diameter) are cut out of a first leaf of kidney bean by a leaf punch and 4 sheets of the disks are placed on wet sanitary cotton in a plastic cup (8 cm diameter). On each leaf disk, 4 female imagines of Kanzawa spider mite (Tetranychus kanzawai kishida) which had acquired a strong resistance to chlorfenapyr are inoculated.
After the inoculation, chlorfenapyr and a compound(s) selected from group A are dispersed in water containing 200 ppm of an extender (Sorpol 3005X) and diluted such that a predetermined concentration of active ingredient is obtained. Each plastic cup is sprayed with 3.5 ml of a test solution with a rotary spray tower (Mizuho Scientific Co., Ltd.) and stored in a constant temperature chamber held at 25±1° C. (32 individuals are tested per concentration, 4−5 concentrations are evaluated per formulation, and 2 performances were repeated). Two days after treatment, the number of living and dead female imagines of Kanzawa spider mite (Tetranychus kanzawai kishida) which had acquired a strong resistance to chlorfenapyr is counted and the mortality (%) is calculated according the formula shown hereinbelow.
A co-toxicity coefficient is calculated by applying Sun and Johnson's formula (J. Econ. Ent., Vol 53, p. 887, […]) which is generally used to determine the degree of synergistic activity.
Co-toxicity coefficient=T^c [formula]
For T^c values greater than 100, the greater value indicates a stronger synergistic action. For a T^c value equal to 100, an additive action is indicated. For T^c values less than 100, the lesser value indicates a greater antagonistic action. A more detailed description of the calculation of the co-toxicity coefficient using the above-referenced Sun and Johnson formula follows.
The LC50 values of Test Compound A alone and Test Compound B alone and the LC50 value of the (A+B) mixture M is determined.
Actual toxicity index of mixture M=M^ti
Each LC50 value of effective ingredient A and effective ingredient B and the LC50 value of the mixture of A+B are used to determine the actual toxicity index as shown in the equation below. [formula]
Theoretical toxicity index of mixture M=Th.M^ti
Th.M^ti=(Toxicity index of A×%A in M+Toxicity index of B×%B in M)
Toxicity index of B=B^ti [formula]

[2] = system: susceptible strain of Kanzawa spider mite; assay: LC50 against susceptible strain of Kanzawa spider mite
Source text: By comparison, the LC50 value for chlorfenapyr against a susceptible strain of Kanzawa spider mite is about 5 ppm.

[3] = system: female imagines of Kanzawa spider mite (Tetranychus kanzawai kishida) which had acquired a strong resistance to chlorfenapyr; assay: Miticidal effect on female imagines of chlorfenapyr-resistant Kanzawa spider mite, leaf disk spray test; conditions: resistant strain obtained by long artificial selection in the laboratory, compared with susceptible strain
[4] = single test compound, chlorfenapyr-resistant strain, female imago, mortality two days after treatment, probit analysis
[5] = single test compound, chlorfenapyr-resistant strain

Molecule | LC50 [1, 4] [ppm] | miticidal effect (in words) [1, 5] | LC50 [2] | resistance to chlorfenapyr of the resistant strain [3] [fold] | LC50 ([1]; in vivo) [ppm]
C/C1=C\C[C@@H]2C[C@@H](C[C@]3(CC[C@H](C)[C@@H](C)O3)O2)OC(=O)[C@@H]2CC[C@@H](O)[C@H]3OC/C(=C\C=C\[C@H](C)C1)[C@]32O (mixture of isomers) [Milbemectin] | 0.28 | – | – | – | –
Cc1ccc(N=CN(C)C=Nc2ccc(C)cc2C)c(C)c1 [Amitraz, 3-methyl-1,5-bis(2,4-xylyl)-1,3,5-triazapenta-1,4-diene] | 200 | low effects | – | – | –
CCC(C)c1cc([N+](=O)[O-])cc([N+](=O)[O-])c1OC(=O)C=C(C)C (stereo not drawn) [Binapacryl, 2,4-dinitro-6-sec-butylphenyldimethyl-acrylate] | 180 | – | – | – | –
CCOCn1c(-c2ccc(Cl)cc2)c(C#N)c(Br)c1C(F)(F)F [Chlorfenapyr, 4-bromo-2-(4-chloropheny)-1-(ethoxymethyl)-5-(trifuloromethyl)pyrrole-3-carbonitrile] | 1500 | – | about 5 ppm | ~300 | –
CN(C)C(=O)SCCCCOc1ccccc1 [Fenothiocarb, S-4-phenoxybutyl-dimethylthiocarbamate] | 1000 | – | – | – | –
OC(c1ccc(Cl)cc1)(c1ccc(Cl)cc1)C(Cl)(Cl)Cl [Kelthane (Dicofol)] | 32 | high miticidal effect | – | – | –
CC(C)OC(=O)C(O)(c1ccc(Br)cc1)c1ccc(Br)cc1 [Phenisobromalate, isopropyl 4,4′-dibromobenzilate] | 280 | low effects | – | – | –
CCOCCc1ccc(OCCNc2ncnc(CC)c2Cl)c(C)c1C [Pyrimidifen, 5-chloro-N-{2-[2,3-dimethyl-4-(2-ethoxyethyl)phenoxy]ethyl}-6-ethyl-4-pyrimidinamine] | – | high miticidal effect | – | – | 10
O=S(=O)(c1ccc(Cl)cc1)c1cc(Cl)c(Cl)cc1Cl [Tetradifon, 2,4,5,4′-tetrachlorodiphenyisulfone] | 4900 | low miticidal effect | – | – | –
dinitromethylheptylphenyl crotonate [DPC] | 630 | low effects | – | – | –
